Laboratory results from the supplement of paper PMC13380429.

Experiments:
[1] = tested on: A549-ACE2 infected with SARS-CoV-2; assay: cell count relative to DMSO; higher = less toxic; details: 24 h
Caco-2 [2] = assay: cell viability relative to DMSO; higher = less toxic; details: 72 h
Calu-3 [3] = assay: as above; details: 72 h
HepG2 [4] = assay: as above; details: 72 h
U2OS [5] = assay: as above; details: 72 h
Vero E6 [6] = assay: as above; details: 72 h
[7] = tested on: A549-ACE2 infected with SARS-CoV-2; assay: SARS-CoV-2 infection rate relative to DMSO; higher = more infection; details: 24 h
A549-ACE2 = assay: drug-induced phospholipidosis relative to tamoxifen; higher = more phospholipidosis
[8] = tested on: A549-ACE2 infected with SARS-CoV-2; assay: morphology score (similarity to uninfected cells); higher = more like uninfected cells; details: 24 h
Caco-2 [9] = assay: relative viability EC50 (midpoint between 100% and the lowest measured viability); higher = less toxic; details: 72 h
Calu-3 [10] = assay: as above; details: 72 h
HepG2 [11] = assay: as above; details: 72 h
U2OS [12] = assay: as above; details: 72 h
Vero E6 [13] = assay: as above; details: 72 h
Caco-2 [14] = assay: drug sensitivity score (DSS) for viability; higher = more toxic; extreme values may be limits of the assay; details: 72 h
Calu-3 [15] = assay: as above; details: 72 h
HepG2 [16] = assay: as above; details: 72 h
U2OS [17] = assay: as above; details: 72 h
Vero E6 [18] = assay: as above; details: 72 h

C=C1C(=O)O[C@@H]2/C=C(\C)CC/C=C(\C)CC[C@@H]12 [costunolide]
Details	SARS-CoV-2 infection rate, [7] [%]	cell count, [1] [%]	cell viability, Caco-2 [2] [%]	cell viability, Calu-3 [3] [%]	cell viability, HepG2 [4] [%]	cell viability, U2OS [5] [%]	cell viability, Vero E6 [6] [%]	morphology score, [8]
1 nM	–	–	96.5	117	99.7	96.3	98.6	–
10 nM	–	–	92.8	102	108	99.8	91.9	–
100 nM	–	–	91.1	98.7	92.9	94.3	99.1	–
0.3 µM	103	104	–	–	–	–	–	0.19
1000 nM	–	–	86.6	94.5	97.3	96.8	97.8	–
3 µM	104	97	–	–	–	–	–	-0.19
10 µM	106	99	–	–	–	–	–	-0.21
10000 nM	–	–	87.1	105	91.5	94.7	93.4	–
30 µM	66	70	–	–	–	–	–	0.15

drug-induced phospholipidosis [%], A549-ACE2
Details	0.3 µM	0.833333 µM	3.33333 µM	6.66667 µM	10 µM	30 µM
24 h	0.39	-3.23	0.77	4.32	10.4	39.6
48 h	2.36	-2.51	0.025	1.2	4.57	14.4
72 h	2.1	-1.84	-1.2	-0.442	1.25	9.89

Details	drug sensitivity score	relative viability EC50 [µM]
Caco-2 [9]	–	> 10
Caco-2 [14]	0.9	–
Calu-3 [10]	–	> 10
Calu-3 [15]	0	–
HepG2 [11]	–	> 10
HepG2 [16]	0	–
U2OS [12]	–	> 10
U2OS [17]	0	–
Vero E6 [13]	–	> 10
Vero E6 [18]	0	–

CC(C)C[C@H](NC(=O)CNC(=O)c1cc(Cl)ccc1Cl)B1OC(=O)C(CC(=O)O)(CC(=O)O)O1 [ixazomib-citrate]
Details	SARS-CoV-2 infection rate, [7] [%]	cell count, [1] [%]	cell viability, Caco-2 [2] [%]	cell viability, Calu-3 [3] [%]	cell viability, HepG2 [4] [%]	cell viability, U2OS [5] [%]	cell viability, Vero E6 [6] [%]	morphology score, [8]
1 nM	–	–	105	107	106	107	106	–
10 nM	–	–	103	103	107	106	102	–
0.1 µM	81	97	–	–	–	–	–	0.41
100 nM	–	–	22.9	27.9	98	69.6	72.5	–
0.3 µM	85	74	–	–	–	–	–	0.25
1 µM	47	69	–	–	–	–	–	0.3
1000 nM	–	–	6.1	5.6	6.3	0.4	11.5	–
3 µM	43	60	–	–	–	–	–	0.28
10000 nM	–	–	7	4.8	0.3	-0.3	4.8	–

Details	drug-induced phospholipidosis [%]
A549-ACE2, 0.3 µM, 24 h	5.51

Details	drug sensitivity score	relative viability EC50 [µM]
Caco-2 [14]	25.9	–
Calu-3 [15]	25.5	–
HepG2 [11]	–	0.358
HepG2 [16]	17.2	–
U2OS [17]	22.4	–
Vero E6 [18]	19.6	–

C=C1C(=O)O[C@@H]2[C@H]3O[C@]3(C)CC/C=C(\C)CC[C@@H]12 [parthenolide-(alternate-stereo)]
Details	SARS-CoV-2 infection rate, [7] [%]	cell count, [1] [%]	cell viability, Caco-2 [2] [%]	cell viability, Calu-3 [3] [%]	cell viability, HepG2 [4] [%]	cell viability, U2OS [5] [%]	cell viability, Vero E6 [6] [%]	morphology score, [8]
1 nM	–	–	98.5	102	102	100	102	–
10 nM	–	–	95.8	108	95.7	101	99.7	–
0.1 µM	101	101	–	–	–	–	–	0.0167
100 nM	–	–	96.8	97.3	103	99.4	102	–
0.3 µM	99.3	102	–	–	–	–	–	0.157
1 µM	104	100	–	–	–	–	–	-0.0567
1000 nM	–	–	98.67	109	94.2	97.7	102	–
3 µM	105	97.7	–	–	–	–	–	-0.3
10000 nM	–	–	45.4	128	22.5	12.2	52.3	–

drug-induced phospholipidosis [%], A549-ACE2
Details	0.3 µM	0.833333 µM	3.33333 µM	6.66667 µM	10 µM
24 h	1.51	0.313	6.15	18.1	24
48 h	1.04	-0.06	2.1	11.9	16.9
72 h	3.01	-1.59	-0.616	4.96	9.42

Details	drug sensitivity score	relative viability EC50 [µM]
Caco-2 [9]	–	2.99
Caco-2 [14]	3.07	–
Calu-3 [15]	0.733	–
HepG2 [11]	–	2.48
HepG2 [16]	5.27	–
U2OS [12]	–	2.94
U2OS [17]	5.23	–
Vero E6 [18]	2.37	–

FC(F)(F)c1ccc(CNc2ccc(Cc3c[nH]c4ncc(Cl)cc34)cn2)cn1 [pexidartinib]
Details	SARS-CoV-2 infection rate, [7] [%]	cell count, [1] [%]	cell viability, Caco-2 [2] [%]	cell viability, Calu-3 [3] [%]	cell viability, HepG2 [4] [%]	cell viability, U2OS [5] [%]	cell viability, Vero E6 [6] [%]	morphology score, [8]
1 nM	–	–	81.7	108	107	94.2	99.7	–
10 nM	–	–	95.7	108	92.2	100	96.4	–
100 nM	–	–	98.2	97.6	105	97.9	103	–
0.3 µM	104	95	–	–	–	–	–	-0.17
1000 nM	–	–	94.6	102	94.5	102	95.3	–
3 µM	102	101	–	–	–	–	–	0.07
10 µM	103	101	–	–	–	–	–	0.25
10000 nM	–	–	94.5	90	80.7	96.8	113	–
30 µM	67	92	–	–	–	–	–	0.46

drug-induced phospholipidosis [%], A549-ACE2
Details	0.3 µM	0.833333 µM	3.33333 µM	6.66667 µM	10 µM	30 µM
24 h	1.33	-1.52	1.3	5.68	7.59	11.6
48 h	2.9	-0.74	2.56	7.51	9.31	14.4
72 h	4.54	-1.68	3.26	9.4	15.6	20.7

Details	drug sensitivity score	relative viability EC50 [µM]
Caco-2 [9]	–	> 10
Caco-2 [14]	0	–
Calu-3 [10]	–	> 10
Calu-3 [15]	0	–
HepG2 [11]	–	> 10
HepG2 [16]	1.2	–
U2OS [12]	–	> 10
U2OS [17]	0	–
Vero E6 [13]	–	> 10
Vero E6 [18]	0	–
